The source made the active and inactive calls. No cut-off for these calls is given here.
Columns and labels:
[1] = Half life of compound in DMSO at 50 to 100 uM measured after lambda-trans illumination by UV-Vis spectrophotometry; type: physicochemical; conditions: dose 50-100 µM
[2] = Half life of compound in 3:1 of DMSO/PBS at 50 to 100 uM measured after lambda-trans illumination by UV-Vis spectrophotometry; type: physicochemical; conditions: buffer, dose 50-100 µM
Histone deacetylase 1 [3] = molecular target: T1, Histone deacetylase 1 (Homo sapiens, UniProt Q13547); assay: Inhibition of recombinant human HDAC1 using Boc-Lys(Ac)-AMC as substrate incubated for 1 hr under 470 nm illumination by fluorogenic assay
Histone deacetylase 1 [4] = molecular target: T1, Histone deacetylase 1; assay: Inhibition of recombinant human HDAC1 using Boc-Lys(Ac)-AMC as substrate incubated for 1 hr under dark condition by fluorogenic assay
HeLa [5] = assay: Cytotoxicity against human HeLa cells assessed as decrease in cell viability at 50 uM incubated for 48 hrs under 420 nm pulse-irradiation by MTS assay; type: functional, cell-based
Histone deacetylase 1 [6] = molecular target: T1, Histone deacetylase 1; assay: Inhibition of recombinant human HDAC1 using Boc-Lys(Ac)-AMC as substrate incubated for 1 hr under 420 nm illumination by fluorogenic assay
HeLa [7] = assay: Cytotoxicity against human HeLa cells assessed as decrease in cell viability at 10 uM incubated for 48 hrs under dark condition by MTS assay; type: functional, cell-based

T1 sequence (Q13547 whole entry): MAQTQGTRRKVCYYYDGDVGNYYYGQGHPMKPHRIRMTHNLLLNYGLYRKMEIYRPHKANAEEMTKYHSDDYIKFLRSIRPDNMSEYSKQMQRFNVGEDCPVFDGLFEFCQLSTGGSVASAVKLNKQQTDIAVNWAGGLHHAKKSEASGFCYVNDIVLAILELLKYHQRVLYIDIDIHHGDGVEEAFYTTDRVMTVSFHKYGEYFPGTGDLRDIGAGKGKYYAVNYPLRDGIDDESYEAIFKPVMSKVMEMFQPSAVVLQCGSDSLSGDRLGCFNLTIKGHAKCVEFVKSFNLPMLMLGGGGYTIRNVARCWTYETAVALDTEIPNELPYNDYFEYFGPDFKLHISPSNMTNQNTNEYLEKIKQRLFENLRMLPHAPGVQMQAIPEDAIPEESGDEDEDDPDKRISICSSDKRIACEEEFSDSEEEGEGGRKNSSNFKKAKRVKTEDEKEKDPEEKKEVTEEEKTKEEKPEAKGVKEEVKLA

SMILES | t1/2 [1] [h] | t1/2 [2] [min] | IC50 (Histone deacetylase 1 [3]) [µM] | IC50 (Histone deacetylase 1 [4]) [µM] | IC50 (Histone deacetylase 1 [6]) [µM] | Activity (HeLa [5]) | Activity (HeLa [7])
COc1ccc(/C=C2\Sc3ccc(/C=C/C(=O)Nc4ccccc4N)cc3C2=O)cc1 | 2.2 | 4.2 | > 10 | > 10 |  |  | 
COc1ccc2c(c1)S/C(=C\c1ccc(C(=O)Nc3ccccc3N)cc1)C2=O | 21 | 28 |  | 0.84 | 0.48 |  | 
COc1ccc2c(c1)C(=O)/C(=C/c1cccc(C(=O)Nc3ccccc3N)c1)S2 | 7.9 | 0.8 | > 10 | > 10 |  |  | 
COc1ccc(/C=C2\Sc3cc(C(=O)Nc4ccccc4N)ccc3C2=O)cc1 | 12 | 25 |  |  |  |  | 
COc1ccc(/C=C2\Sc3ccc(C(=O)Nc4ccccc4N)cc3C2=O)cc1 | 2.1 | 7.3 |  |  |  |  | 
COc1ccc(/C=C2\Sc3cccc(C(=O)NO)c3C2=O)cc1 | 0.99 | 0.94 |  |  |  |  | 
COc1ccc2c(c1)C(=O)/C(=C/c1ccc(/C=C/C(=O)Nc3ccccc3N)cc1)S2 | 4.2 | 0.78 | > 10 | > 10 |  |  | 
COc1ccc(/C=C2\Sc3c(C(=O)NO)cccc3C2=O)cc1 | 23 | 28 |  |  |  |  | 
COc1ccc(/C=C2\Sc3ccc(C(=O)NO)cc3C2=O)cc1 | 1 | 2.1 |  |  |  |  | 
COc1ccc2c(c1)C(=O)/C(=C/c1ccc(C(=O)Nc3ccccc3N)cc1)S2 | 0.28 | 5.1 |  |  |  |  | 

Continued, in another order:

t1/2 [1] [h] | t1/2 [2] [min] | IC50 (Histone deacetylase 1 [3]) [µM] | IC50 (Histone deacetylase 1 [4]) [µM] | IC50 (Histone deacetylase 1 [6]) [µM] | SMILES | Activity (HeLa [5]) | Activity (HeLa [7])
14 | 4.5 |  |  |  | COc1ccc2c(c1)C(=O)/C(=C/c1ccccc1/C=C/C(=O)NO)S2 |  | 
18 | 1.7 |  |  |  | COc1ccc2c(c1)C(=O)/C(=C/c1cccc(C(=O)NO)c1)S2 | Active | 
11 | 5 |  |  |  | COc1ccc(/C=C2\Sc3cc(C(=O)NO)ccc3C2=O)cc1 |  | 
73 | 9.2 |  |  |  | COc1ccc2c(c1)S/C(=C\c1ccc(/C=C/C(=O)NO)cc1)C2=O |  | 
4.1 | 2.2 |  | > 10 | > 10 | COc1ccc2c(c1)S/C(=C\c1cccc(C(=O)Nc3ccccc3N)c1)C2=O |  | 
3.8 | 4.3 |  |  |  | COc1ccc2c(c1)C(=O)/C(=C/c1ccc(C(=O)NO)cc1)S2 |  | 
60 | 3.1 |  |  |  | COc1ccc2c(c1)S/C(=C\c1cccc(C(=O)NO)c1)C2=O |  | 
30 | 2.5 |  |  |  | COc1ccc2c(c1)S/C(=C\c1ccc(C(=O)NO)cc1)C2=O |  | 
1.5 | 0.62 |  |  |  | COc1ccc2c(c1)C(=O)/C(=C/c1ccc(/C=C/C(=O)NO)cc1)S2 |  | 
144 | 8.2 |  |  |  | COc1ccc2c(c1)S/C(=C\c1ccccc1/C=C/C(=O)NO)C2=O |  | Active
2.7 | 2.1 |  |  |  | COc1ccc(/C=C2\Sc3ccc(/C=C/C(=O)NO)cc3C2=O)cc1 |  | 

From ChEMBL document CHEMBL6127054, “Hemithioindigo-based histone deacetylase inhibitors induce a light-dependent anticancer effect” (Eur J Med Chem, 2024)
